Read-outs that look alike come from different tables or passages of the source. Peptide text beside a SMILES is read from it. * marks the point of attachment. Cbz = O=C(OCc1ccccc1)*
How the values were obtained:
[1] = biological target: T1, BrAAP component of the multicatalytic proteinase complex (MPC) (Bos taurus, UniProt Q2TBP0+Q32KL2+Q3MHN0); assay: Activity of the BrAAP component of the MPC, coupled two step reaction with aminopeptidase N; Ki by Dixon plots; assay type: biochemical, bovine
T1 construct: The MPC was isolated from frozen bovine pituitaries; tissue PelFreeze, Inc. (Rogers, Ark.) (supplier of the tissue; the enzyme was purified in house); host or cells: bovine pituitaries
Excerpt: (§1) The MPC was isolated from frozen bovine pituitaries, obtained from PelFreeze, Inc. (Rogers, Ark.) essentially as described in Orlowski & Michaud, Biochemistry 28:9270-9277 (1989), incorporated herein by reference.
(§2) Cbz-Gly-Pro-Ala-Leu-Gly-pAB and Cbz-Gly-Pro-Ala-Gly-Gly-pAB, where pAB is p-aminobenzoate, were used as convenient substrates for the determination of the activity of the BrAAP and SNAAP components respectively. The BrAAP component cleaves exclusively the Leu-Gly bond in Cbz-Gly-Pro-Ala-Leu-Gly-pAB, whereas the SNAAP component cleaves the Gly-Gly bond in Cbz-Gly-Pro-Ala-Gly-Gly-pAB.
(§3) A coupled two step reaction in the presence of excess aminopeptidase N (AN) was used for the determination of the BrAAP and SNAAP activities as described previously (Orlowski et al., Biochemistry 32:1563-1572 (1993)). Aminopeptidase N was purified from hog kidneys as described by Pfleiderer, Meth. Enzymol. 19:514-521 (1970) and freed from the contaminating metalloendopeptidase (EC 3.4.24.11) as previously described (Almenoff & Orlowski, Biochemistry 22:590-599 (1983)).
(§4) Inhibition constant (K1) values for the inhibitors of the present invention towards the various proteolytic activities of the MPC were determined by the method of Dixon, Biochem. J. 55:170-171 (1953). Plots of 1/v vs [I] were made at three (3) different synthetic substrate concentrations and six (6) different inhibitor concentrations [I]. Linear regression analysis gave generally correlation coefficients better than 0.99.
(§5) Inhibition was tested with and without preincubation of the MPC with the inhibitors of the invention. No increase in inhibition was observed after preincubation of the enzyme with the inhibitor for up to 30 min, indicating absence of slow binding phenomena and a rapid equilibration between enzyme and inhibitor.
(§6) Table II provides a summary of the Ki measurements for the various peptidyl aldehydes of the invention synthesized in accordance with Examples 2 and 3.

[2] = biological target: T2, SNAAP component of the multicatalytic proteinase complex (MPC) (Bos taurus, UniProt Q2TBP0+Q32KL2+Q3MHN0); assay: Activity of the SNAAP component of the MPC, coupled two step reaction with aminopeptidase N; Ki by Dixon plots; assay type: biochemical, bovine; conditions: substrate Cbz-Gly-Pro-Ala-Gly-Gly-pAB (1 to 4 mill); mean of 3 to 6 experiments ± SEM
T2 construct: The MPC was isolated from frozen bovine pituitaries; tissue PelFreeze, Inc. (Rogers, Ark.) (supplier of the tissue; the enzyme was purified in house); host or cells: bovine pituitaries
Excerpt: as §1, §2, §3, §4, §5, §6

[3] = biological target: T3, ChT-L component of the multicatalytic proteinase complex (MPC) (Bos taurus, UniProt Q32KL2); assay: ChT-L activity of the MPC with Cbz-Gly-Gly-Leu-pNA; Ki by Dixon plots; assay type: biochemical, bovine; conditions: for Ki: substrate Cbz-Gly-Gly-Leu-pNA (0.1 to 0.4 MM), mean of 3 to 6 experiments ± SEM
T3 construct: The MPC was isolated from frozen bovine pituitaries; tissue PelFreeze, Inc. (Rogers, Ark.) (supplier of the tissue; the enzyme was purified in house); host or cells: bovine pituitaries
Excerpt: as §1
(§7) The substrates Cbz-Gly-Gly-Leu-pNA, Cbz-D-Ala-Leu-Arg-2NA and Cbz-Leu-Leu-Glu-2NA were used to determine the activities of the ChT-L, T-L and PGPH components of the MPC, respectively, as previously described by Wilk and Orlowski, J. Neurochem. 35:1172-1182 (1980) and J. Neurochem 40:842-849 (1983), where pNA is p-nitroaniline and 2NA is 2-naphthylamide.The rate of release of the chromogenic group (aromatic amine) was measured after diazotization (Goldbarg & Rutenburg, Cancer 11:283-291 (1958) Bratton & Marshall, J. Biol. Chem. 128:537-550 (1939)).
(§8) Reaction mixtures contained 0.4 to 0.8 mM substrate, Tris-HCl buffer (0.05M; pH 8.0) and enzyme (1 to 3 μg) in a final volume of 0.25 ml. Incubations were at 37° C. The reactions were stopped by addition of an equal volume of 10% trichloroacetic acid and diazotization was then carried out.
as §4, §5, §6

[4] = biological target: T4, BRAAP component of the MPC (Bos taurus, UniProt Q2TBP0+Q32KL2+Q3MHN0); conditions: data from Orlowski et al., Biochemistry 32:1563-1572 (1993), cited from earlier work; for Km: [S] 1.6-8.0
T4 construct: The MPC was isolated from frozen bovine pituitaries; tissue PelFreeze, Inc. (Rogers, Ark.) (supplier of the tissue; the enzyme was purified in house); host or cells: bovine pituitaries

[5] = biological target: T5, PGPH component of the multicatalytic proteinase complex (MPC) (Bos taurus, UniProt Q3MHN0); assay: PGPH activity of the MPC with Cbz-Leu-Leu-Glu-2NA; IC50; assay type: biochemical, bovine
T5 construct: The MPC was isolated from frozen bovine pituitaries; tissue PelFreeze, Inc. (Rogers, Ark.) (supplier of the tissue; the enzyme was purified in house); host or cells: bovine pituitaries
Excerpt: as §1, §7, §8
Due to the sigmoidal relationship between reaction rate and substrate concentration for the PGPH activity, only IC50 values (inhibitor concentration giving 50% inhibition) at a substrate concentration of 0.64 mM were determined. […] Some inhibition of the ChT-L activity was also observed, although the Ki for this component was almost 20 times higher than that for the other three activities. […] Indeed, at the concentrations used, each of the inhibitors produced some activation of the T-L activity (data not shown).

[6] = biological target: T1, BrAAP component of the multicatalytic proteinase complex (MPC); conditions: cited from earlier work
[7] = biological target: T5, PGPH component of the multicatalytic proteinase complex (MPC); conditions: cited from earlier work; for increase of the PGPH activity: low concentrations of SDS (0.02%) or fatty acids, depending on the substrate concentration
[8] = biological target: T6, multicatalytic proteinase complex (MPC) (Bos taurus, UniProt Q2TBP0+Q32KL2+Q3MHN0); assay: β-casein degradation by the MPC, HPLC; assay type: biochemical, bovine; conditions: for inhibition at 50 µM: 50 μM inhibitor, MPC 5.0 μg
T6 construct: The MPC was isolated from frozen bovine pituitaries; tissue PelFreeze, Inc. (Rogers, Ark.) (supplier of the tissue; the enzyme was purified in house); host or cells: bovine pituitaries
Method: as §1
(§9) In vitro protein degrading activity of the MPC, and the effects of the various inhibitors of the present invention on such activity, was determined using β-casein and histone H3 as proteolytic substrates. For determining protein degrading activity in the presence and absence of inhibitors, incubation mixtures contained Tris-HCl buffer (0.05M, pH 8.0), β-casein or histone H3, 20 mM Mg^2+ where indicated, and inhibitor dissolved in dimethylsulfoxide, where indicated. In control samples, the inhibitor was replaced by an equal volume of dimethylsulfoxide alone.
(§10) In order to measure proteolysis by the MPC, and its inhibition by the inhibitors of the invention, aliquots of the reaction mixtures were removed after various incubation times and subjected to HPLC on a Deltapak column (C4; 5 μm; 300 A; 3.9×150 mm Waters). Elution of histone H3 was carried out with a linear gradient over 30 min. established between 30 and 50% acetonitrile (v/v) in water containing 0.1% trifluoroacetic acid (v/v) at a flow rate of 1 ml/min. Elution of β-casein was carried with a linear gradient established between 10 and 45% acetonitrile (v/v) in water containing 0.1% trifluoroacetic acid (v/v). The rate of protein degradation was determined by measuring the decrease of the peak height of the protein compared with controls in which the enzyme was omitted. Alternatively degradation of the proteins was determined by integrating the area under the peak of the protein at time zero and determining the decrease of the area after incubation with the enzyme.
FIG. 1 depicts the inhibition of β-casein degradation by Cbz-Gly-Pro-Ala-Leu-CHO. HPLC analyses were carried out on samples that had been incubated in the absence and presence of the inhibitor. Incubation mixtures contained β-casein (200 μg), 20 mM Mg^2+, MPC (30 μg) and various concentrations of, inhibitor, if used, in 2 μl of Me2 SO. […]

[9] = biological target: T6, multicatalytic proteinase complex (MPC); assay: Histone H3 degradation by the MPC, HPLC; assay type: biochemical, bovine; conditions: 50 μM inhibitor
Method: as §1, §9, §10
Histone H3 used for testing the proteolytic activity of MPC was purified from a crude histone VIII S fraction (obtained from Sigma Chemical Co. St. Louis, Mo.) by HPLC. The material was applied to a Delta Pak C4-300A semipreparative column (15 μm; 7.8 mm×300 mm) equilibrated with 30% acetonitrile (v/v) in water solution, containing 0.1% trifluoroacetic acid (v/v). Elution was carried out at a flow rate of 4 ml/min with a linear, 50 min. gradient established between 30% and 50% acetonitrile (v/v) in water, each containing 0.1% trifluoroacetic acetic acid (v/v). The main protein peak was collected and the solvent was removed under reduced pressure. The protein was dissolved in water at a concentration of 1.85 mg/ml and used for experiments. The purified histone H3 was subjected to HPLC on an analytical Deltapak column (C4; 5 μm; 300 A; 3.9×150 mm; Waters) with a linear gradient established between 30 and 50% acetonitrile (v/v) in water, containing 0.1% trifluoroacetic acid (v/v). […]

[10] = substrate Cbz-Gly-Pro-Ala-Leu-Gly-pAB (1 to 4 mill), mean of 3 to 6 experiments ± SEM, read-out: Ki, BRAAP component
[11] = substrate Cbz-Leu-Leu-Glu-2NA (0.2 to 0.6 mill), inhibitor concentration giving 50% inhibition, read-out: IC50, PGPH component

Q: Which Ki [1, 10] does the source give for `CC(C)C[C@@H](C=O)NC(=O)[C@H](C)NC(=O)CNC(=O)[C@@H]1CCCN1C(=O)OCc1ccccc1` [Cbz-Pro-Gly-Ala-Leu-CHO] (Cbz-PGAL-aldehyde) here?
A: 104 ± 2.3 µM

Q: And the Ki [2]?
A: 36.7 ± 3.6 µM

Q: What about the Ki [3] of the same compound?
A: 16.4 ± 2.7 µM

Q: Which Km [4] does the source give for Cbz-Gly-Pro-Ala-Leu-Ala-pAB here?
A: 6.7 mM

Q: What about the kcat [4] of the same compound?
A: 5.2 s⁻¹

Q: What about the “kcat /Km” value [4] of the same compound?
A: 780 M⁻¹ s⁻¹

Q: Which results are given for “Cbz-Gly-Pro-Ala-Leu-Gly-p-aminobenzoate [Cbz-Gly-Pro-Ala-Leu-Gly-pAB]”?
A: Km [4]: 5.2 mM; kcat [4]: 3.75 s⁻¹; kcat /Km [4]: 720 M⁻¹ s⁻¹

Q: With `C[C@H](NC(=O)[C@@H]1CCCN1C(=O)CNC(=O)OCc1ccccc1)C(=O)N[C@H](C=O)Cc1ccccc1` [Cbz-Gly-Pro-Ala-Phe-CHO] (Cbz-GPAF-aldehyde) as the compound, how does the Ki [1, 10] read?
A: 305 ± 77 µM

Q: And the Ki [2]?
A: 406 ± 54 µM

Q: What about the Ki [3] of the same compound?
A: 1850 ± 750 µM

Q: With `CC(C)[C@@H](C=O)NC(=O)[C@H](Cc1ccccc1)NC(=O)[C@@H]1CCCN1C(=O)CNC(=O)OCc1ccccc1` [Cbz-Gly-Pro-Phe-Val-CHO] (Cbz-GPFV-aldehyde) as the compound, how does the Ki [1, 10] read?
A: 47.3 ± 4.9 µM

Q: What about the Ki [2] of the same compound?
A: 24 ± 0.84 µM

Q: What about the Ki [3] of the same compound?
A: 331 ± 22 µM

Q: And the IC50 [5, 11]?
A: 62 µM

Q: What does the source list for `O=c1oc(Cl)c(Cl)c2ccccc12` [DCI, 3,4-dichloroisocoumarin]?
A: activation of the BrAAP component ([6]; treatment of the MPC with DCI (10 μM)): 10 fold; inactivation of the PGPH activity ([7]; DCI (10 μM)): almost complete inactivation

Q: What does the source list for `CC(C)C[C@@H](C=O)NC(=O)[C@H](Cc1ccccc1)NC(=O)[C@@H]1CCCN1C(=O)CNC(=O)OCc1ccccc1` [Cbz-Gly-Pro-Phe-Leu-CHO] (Cbz-GPFL-aldehyde)?
A: Ki ([1]; MPC exposed to DCI (10 μM), average of three determinations, read-out: Ki, BrAAP activity of the DCI-treated enzyme): 1.67 µM; Ki [1, 10]: 1.5 ± 0.17 µM; Ki [2]: 2.3 ± 0.24 µM; Ki for ChT-L activity, times higher than that for the other three activities ([3]; ChT-L vs BrAAP, SNAAP, PGPH): ~20 times; Ki [3]: 40.5 ± 8.8 µM; IC50 ([5]; substrate concentration of 0.64 mM, absence of SDS, read-out: IC50, PGPH activity): 3.1 µM; inhibition at 50 µM ([8]; β-casein 160 μg/ml, no Mg2+): 94%; inhibition at 50 µM ([8]; β-casein 1000 μg/ml, 20 mM Mg2+): 89%; inhibition at 50 µM ([9]; all histone H3 concentrations, read-out: inhibition of the rate of histone H3 degradation): ~80%; inhibition at 50 µM ([9]; histone H3 185 μg/ml, MPC 2.5 μg, read-out: Inhibition, histone H3 degradation): 77%; inhibition at 50 µM ([9]; histone H3 370 μg/ml, MPC 2.5 μg, read-out: Inhibition, histone H3 degradation): 76%; inhibition at 50 µM ([9]; histone H3 740 μg/ml, MPC 2.5 μg, read-out: Inhibition, histone H3 degradation): 86%

Q: For `CCCCCCCCCCCCOS(=O)(=O)[O-].[Na+]` [SDS, sodium dodecyl sulfate], which “activation of the BrAAP component” value ([6]; treatment of the MPC with SDS, synthetic substrates) is on record?
A: ~50 fold

Q: What about the “increase of the PGPH activity” value [7] of the same compound?
A: ~10 fold

Q: With `CC(C)C[C@@H](C=O)NC(=O)[C@H](C)NC(=O)[C@@H]1CCCN1C(=O)CNC(=O)OCc1ccccc1` [Cbz-Gly-Pro-Ala-Leu-CHO] (Cbz-GPAL-aldehyde) as the compound, how does the Ki [1, 10] read?
A: 13.9 ± 1.9 µM

Q: What about the Ki [2] of the same compound?
A: 17.2 ± 3.4 µM

Q: What about the Ki [3] of the same compound?
A: 471 ± 48 µM

Q: And the IC50 [5, 11]?
A: 60 µM

Q: And the “β-casein substrate remaining intact” value ([8]; 200 μM inhibitor, 30 min incubation, β-casein 200 μg, 20 mM Mg2+, MPC 30 μg)?
A: ~90%

Q: Which “increase of the PGPH activity” value [7] does the source give for `CCCCCCCCCCCC(=O)O` [lauric acid] here?
A: ~10 fold
